Laboratory results taken from PMC4363128 (Neuroscience, 2013).

Assays:
[1] = test system: Y1 receptors; NK1R internalization in lamina I neurons; test: NK1R internalization evoked by dorsal root stimulation in spinal cord slices; format: cell-based, rat; details: BIBO3304 100 nM with 100 nM [Leu^31,Pro^34]NPY
Y1 receptor = target: T1, Y1 receptor (Mus musculus, UniProt Q04573); format: biochemical
T1 sequence (Q04573 1-382): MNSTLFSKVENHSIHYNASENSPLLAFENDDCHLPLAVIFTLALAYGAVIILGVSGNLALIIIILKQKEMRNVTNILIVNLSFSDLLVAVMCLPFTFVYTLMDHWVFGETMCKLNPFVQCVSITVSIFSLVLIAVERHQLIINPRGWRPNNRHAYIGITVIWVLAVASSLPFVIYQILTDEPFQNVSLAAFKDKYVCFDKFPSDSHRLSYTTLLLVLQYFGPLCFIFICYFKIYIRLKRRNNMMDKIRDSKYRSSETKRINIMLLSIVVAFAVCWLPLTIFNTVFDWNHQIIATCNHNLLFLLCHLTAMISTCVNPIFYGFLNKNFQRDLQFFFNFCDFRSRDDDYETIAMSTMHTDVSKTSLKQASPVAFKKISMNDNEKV

[2] = test system: NK1R internalization in dorsal horn lamina I neurons; format: in vivo, rat; details: intrathecal NPY one hour before hind paw clamp
[3] = test system: NK1R internalization in dorsal horn lamina I neurons; test: NK1R internalization evoked by non-noxious stimulus; format: in vivo, rat; details: intrathecal NPY, carrageenan-inflamed paw; printed 'by nearly 50%'

With NC(=O)NCc1ccc(CNC(=O)[C@@H](CCCN=C(N)N)NC(=O)C(c2ccccc2)c2ccccc2)cc1 [BIBO3304] the “effect on inhibition of NK1R internalization produced by Y1 agonist” value [1] was “completely reversed” and the IC50 (Y1 receptor) was 7.85 nM.

In the case of Neuropeptide Y [NPY], the “inhibition of evoked NK1R internalization” value [2] is reported as 50% and the “inhibition of brush-evoked NK1R internalization” value [3] is reported as about 50%.
